Experimental data as given in patent publication US20250152660A1, “SCO-spondin-derived polypeptides for treating biological barriers dysfunction” (AXOLTIS PHARMA, priority 2021, published 2025).
Several values for one entry are separate records, joined by “and”; a condition that tells them apart may be missing. Equal values may be shown once. Bridges are numbered along the chain shown (N, C = ends). Where no end group is shown, it is not given here.

Assays:
[1] = system: primary human umbilical vein endothelial cells (HUVEC); test: Transendothelial electrical resistance (TEER) of primary human umbilical vein endothelial cell monolayer; format: cell-based; conditions: for TEER change relative to control, Average: average of N1-N9, control = 100; for TEER change relative to control: control average = 100, individual replicates N1-N9
Method: To determine the effect of NX218 on transendothelial electrical resistance (TEER) of primary human umbilical vein endothelial cells (HUVEC), cells were grown on a semi-permeable membrane inserted in culture wells in presence or absence of NX218 and the TEER was recorded using electrodes placed on each side of the membrane and a resistance meter.
HUVEC (PromoCell, C-12208) were cultured in EBM-2 basal media supplemented with bullet kit reagents (both from Lonza) in a 5% CO2 incubator at 37° C.
HUVEC were grown on 6.5-mm-diameter, 0.4-μm-pore, polyester membrane HTS Transwell inserts (5×10^4 cells per well containing 200 μL and 800 μL of culture medium in the apical and basolateral compartments respectively). Two days after seeding, cells were treated with vehicle or NX218 (1, 10 and 100 μM) for 1 or 3 days. TEER values were measured using an EVOM resistance meter fitted with “chopstick” electrodes. One electrode was placed in the apical chamber and another one in the basolateral chamber. Before measurements, chambers were replaced with fresh medium.

[2] = system: Claudin-5 at tight junction of mouse brain endothelial bEnd.3 cells; test: Claudin-5 immunocytochemistry at tight junction in mouse brain endothelial cell cultures; format: cell-based
Method: To understand the effect of NX218 on the TEER and permeability of mouse brain endothelial cells in examples 3 and 4, the levels of the tight junction protein Claudin-5 were assessed using immunocytochemistry.
Mouse brain endothelial cells (bEnd.3, American Type Culture Collection) were cultured in DMEM supplemented with 10% fetal FBS and 2 mM sodium pyruvate in a 5% CO2 incubator at 37° C.
bEnd.3 cells were seeded on 1% fibronectin-coated Nunc Lab-Tek II Chamber Slides in culture medium (1×10^5 cells per well in 300 μL). Two days after seeding, cells were treated with vehicle or NX218 (1, 10 and 100 μM) for 1, 2 or 3 days. Cells were then fixed for 10 min at room temperature (RT) with 4% paraformaldehyde in phosphate buffered saline (PBS), washed twice with PBS and incubated with 5% normal goat serum and 0.05% Triton X-100 in PBS for 1 h at RT before overnight incubation with polyclonal rabbit anti-claudin-5 ( 1/100; 34-1600, Invitrogen) at 4° C. Cells were then washed three times with PBS and incubated with goat anti-rabbit Cy3 secondary antibody ( 1/500; ab6939, Abcam) for 2 h at RT and counterstained with Hoechst 33258 to visualize nuclei. The slide was removed from the chamber and mounted with Aqua Poly/Mount before visualization by confocal laser scanning/microscopy. Claudin-5 immunoreactivity (intensity) at membrane localization was finally quantified to evaluate Claudin-5 protein levels. The data are expressed as a percentage of the control condition.
A second independent experiment using the protocol described at example 5 was performed. Pooling the data from the 2 experiments (the first experiment was done in triplicate, the 2nd in duplicate, n=5) improves the statistical power and allow to reach statistical significance for a tendency observed at 72 hours timepoint.

W-S-G-W-S-S-C-S-R-S-C-G (WSGWSSCSRSCG; disulfide 7-11 (inferred)) [NX218]
TEER change relative to control, Average ([1]; NX218 1 μM, 24 hours): 104 | TEER change relative to control ([1]; NX218 1 μM, 24 hours): 101.3 (3×) and 95.36 (2×) and 89.4 and 119.2 (2×) and 113.2 | TEER change relative to control, Average ([1]; NX218 1 μM, 72 hours): 101.1 | TEER change relative to control ([1]; NX218 1 μM, 72 hours): 113.1 (2×) and 97.71 and 87.43 and 82.29 and 92.57 and 123.4 and 128.6 and 72 | TEER change relative to control, Average ([1]; NX218 10 μM, 24 hours): 119.2 | TEER change relative to control ([1]; NX218 10 μM, 24 hours): 101.3 (2×) and 119.2 and 149 (2×) and 143 and 89.4 and 113.2 and 107.3 | TEER change relative to control, Average ([1]; NX218 10 μM, 72 hours): 109.7 | TEER change relative to control ([1]; NX218 10 μM, 72 hours): 97.71 and 118.3 and 123.4 and 87.43 and 102.9 and 108 (2×) and 128.6 and 113.1 | TEER change relative to control, Average ([1]; NX218 100 μM, 24 hours): 158.9 | TEER change relative to control ([1]; NX218 100 μM, 24 hours): 137.1 and 149 and 143 (2×) and 172.8 and 184.8 (2×) and 155 and 160.9 | TEER change relative to control, Average ([1]; NX218 100 μM, 72 hours): 131.4 | TEER change relative to control ([1]; NX218 100 μM, 72 hours): 144 (2×) and 138.9 and 108 (2×) and 123.4 and 133.7 and 154.3 and 128.6 | Resistance (TEER), result in words ([1]; NX218 at 100 μM for 1 or 3 days, compared with vehicle): significantly increased in a dose dependent manner | Claudin-5 levels, result in words ([2]; 24 hours, NX218 at 10 and 100 μM): significant increase in Claudin-5 levels | Expression of Claudin-5 at tight junction ([2]; FIG. 3, 24-hour treatment): increases the expression of Claudin-5 at tight junction | Expression of Claudin-5 at tight junction ([2]; FIG. 5, 72-hour treatment): increases the expression of Claudin-5 at tight junction | Expression of Claudin-5 at tight junction, Average ([2]; NX218 1 μM, 24 hours, bEnd.3, average of N1-N6): 112.5 % of Control | Expression of Claudin-5 at tight junction ([2]; NX218 1 μM, 24 hours, bEnd.3, individual replicates N1-N6): 108.1 % of Control and 99.96 % of Control and 119.3 % of Control and 99.61 % of Control and 140.4 % of Control and 107.5 % of Control | Expression of Claudin-5 at tight junction, Average ([2]; NX218 1 μM, 48 hours, bEnd.3, average of N1-N6): 80.63 % of Control | Expression of Claudin-5 at tight junction ([2]; NX218 1 μM, 48 hours, bEnd.3, individual replicates N1-N6): 76.07 % of Control and 52.45 % of Control and 76.37 % of Control and 93.88 % of Control and 102.1 % of Control and 82.89 % of Control | Expression of Claudin-5 at tight junction, Average ([2]; NX218 1 μM, 72 hours, bEnd.3, first experiment (Table 9), average of N1-N4): 81.69 % of Control | Expression of Claudin-5 at tight junction ([2]; NX218 1 μM, 72 hours, bEnd.3, first experiment (Table 9), individual replicates N1-N4): 77.15 % of Control and 90.23 % of Control and 103.8 % of Control and 55.53 % of Control | Expression of Claudin-5 at tight junction, Average ([2]; NX218 1 μM, 72 hours, bEnd.3, pooled data of 2 experiments (Table 12), average of N1-N7): 96.00 % of Control | Expression of Claudin-5 at tight junction ([2]; NX218 1 μM, 72 hours, bEnd.3, pooled data of 2 experiments (Table 12), individual replicates N1-N7): 86.80 % of Control and 107.60 % of Control and 99.90 % of Control and 104.20 % of Control and 92.70 % of Control and 103.50 % of Control and 77.10 % of Control | Expression of Claudin-5 at tight junction, Average ([2]; NX218 10 μM, 24 hours, bEnd.3, average of N1-N6): 151.7 % of Control | Expression of Claudin-5 at tight junction ([2]; NX218 10 μM, 24 hours, bEnd.3, individual replicates N1-N6): 126.9 % of Control and 154.4 % of Control and 137 % of Control and 121.3 % of Control and 169.4 % of Control and 200.9 % of Control | Expression of Claudin-5 at tight junction, Average ([2]; NX218 10 μM, 48 hours, bEnd.3, average of N1-N6): 97.8 % of Control | Expression of Claudin-5 at tight junction ([2]; NX218 10 μM, 48 hours, bEnd.3, individual replicates N1-N6): 66.36 % of Control and 83.18 % of Control and 120.8 % of Control and 145.7 % of Control and 97.51 % of Control and 73.25 % of Control | Expression of Claudin-5 at tight junction, Average ([2]; NX218 10 μM, 72 hours, bEnd.3, first experiment (Table 9), average of N1-N4): 70.23 % of Control | Expression of Claudin-5 at tight junction ([2]; NX218 10 μM, 72 hours, bEnd.3, first experiment (Table 9), individual replicates N1-N4): 56.03 % of Control and 94.63 % of Control and 58.42 % of Control and 71.86 % of Control | Expression of Claudin-5 at tight junction, Average ([2]; NX218 10 μM, 72 hours, bEnd.3, pooled data of 2 experiments (Table 12), average of N1-N7): 97.80 % of Control
